Data: publication PMC4520770 (Journal of molecular biology, 2015)
No end group written: not given here.

Columns and labels:
KSBcl-2 = KSBcl-2 (Human herpesvirus 8 type P, UniProt F5HGJ3); assay: biochemical; type: binding, Kaposi's sarcoma-associated herpesvirus (KSHV)
BHRF1 = BHRF1 (Epstein-Barr virus, UniProt P03182); assay: biochemical; type: binding, Epstein-Barr herpesvirus (EBV)
Mcl-1 = Mcl-1 (Homo sapiens, UniProt Q07820); assay: Direct fluorescence anisotropy binding to Mcl-1
Sequence of Mcl-1 (Q07820 whole entry): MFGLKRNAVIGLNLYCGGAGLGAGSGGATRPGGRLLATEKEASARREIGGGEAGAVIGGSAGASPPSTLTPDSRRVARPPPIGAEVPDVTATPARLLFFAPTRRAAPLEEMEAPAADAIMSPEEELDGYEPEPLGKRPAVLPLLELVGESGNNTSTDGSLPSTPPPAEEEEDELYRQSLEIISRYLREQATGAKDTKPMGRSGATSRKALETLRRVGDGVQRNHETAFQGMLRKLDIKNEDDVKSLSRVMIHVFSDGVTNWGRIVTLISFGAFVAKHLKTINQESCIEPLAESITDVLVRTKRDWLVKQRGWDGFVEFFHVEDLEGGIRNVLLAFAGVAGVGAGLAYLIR

Sequence of BHRF1 (P03182 whole entry): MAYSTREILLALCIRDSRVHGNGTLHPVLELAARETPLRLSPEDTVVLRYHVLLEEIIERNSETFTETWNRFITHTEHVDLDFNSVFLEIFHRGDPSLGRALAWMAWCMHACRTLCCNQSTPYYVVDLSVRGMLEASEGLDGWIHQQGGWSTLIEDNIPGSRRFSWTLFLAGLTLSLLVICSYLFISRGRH
Sequence of KSBcl-2 (F5HGJ3 whole entry): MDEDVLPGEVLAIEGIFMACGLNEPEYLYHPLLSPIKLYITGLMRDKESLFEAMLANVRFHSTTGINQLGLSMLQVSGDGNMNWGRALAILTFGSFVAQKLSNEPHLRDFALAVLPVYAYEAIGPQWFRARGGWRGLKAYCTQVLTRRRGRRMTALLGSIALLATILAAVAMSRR

| Substance | Kd (KSBcl-2) | Kd (BHRF1) | Kd (Mcl-1) |
| --- | --- | --- | --- |
| RPIIWIGQEISRVGDRENAYKAR-NH2 [BL6-22_Y4eK] | 750 ± 300 nM | 30 ± 17 nM | ~2200 nM |
| RPQIWIHQGLQRLGAGLNAYYAR-NH2 [KL6-7_D3fA] | 180 ± 80 nM | > 1000 nM | > 5000 nM |
| RPNIWLTQRLQRTGDGLNAYYAR-NH2 [KScomp] | 13 ± 7.3 nM | > 1000 nM | 510 ± 190 nM |
| RPQIWIHQGLQRLGDGLNAYKAR-NH2 [KL6-7_Y4eK] | 2.9 ± 1.3 nM | > 1000 nM | ~7800 nM |
